We go through 18 molecules from patent publication US12685735B2 (Foghorn Therapeutics Inc., priority 2020, dated 2026).

The target of assay [1] is BRG-1 (Homo sapiens, UniProt P51532). Description: ATPase catalytic activity assay of BRG-1 (ADP-Glo). In kind it is biochemical. As to conditions: ATPase catalytic activity, ADP-Glo; for IC50: read-out: BRG1 IC50 (μM)*; for Emax: read-out: BRG1 Max % Inhibition. As for the experimental part: (§1) The ATPase catalytic activity of BRM or BRG-1 was measured by the in vitro biochemical assay using ADP-Glo™ (Promega, V9102). The ADP-Glo™ kinase assay is performed in two steps once the reaction is complete. The first step is to deplete any unconsumed ATP in the reaction. The second step is to convert the reaction product ADP to ATP, which will be utilized by the luciferase to generate luminesce and be detected by a luminescence reader, such as Envision.
Chain of BRG-1 (P51532 whole entry): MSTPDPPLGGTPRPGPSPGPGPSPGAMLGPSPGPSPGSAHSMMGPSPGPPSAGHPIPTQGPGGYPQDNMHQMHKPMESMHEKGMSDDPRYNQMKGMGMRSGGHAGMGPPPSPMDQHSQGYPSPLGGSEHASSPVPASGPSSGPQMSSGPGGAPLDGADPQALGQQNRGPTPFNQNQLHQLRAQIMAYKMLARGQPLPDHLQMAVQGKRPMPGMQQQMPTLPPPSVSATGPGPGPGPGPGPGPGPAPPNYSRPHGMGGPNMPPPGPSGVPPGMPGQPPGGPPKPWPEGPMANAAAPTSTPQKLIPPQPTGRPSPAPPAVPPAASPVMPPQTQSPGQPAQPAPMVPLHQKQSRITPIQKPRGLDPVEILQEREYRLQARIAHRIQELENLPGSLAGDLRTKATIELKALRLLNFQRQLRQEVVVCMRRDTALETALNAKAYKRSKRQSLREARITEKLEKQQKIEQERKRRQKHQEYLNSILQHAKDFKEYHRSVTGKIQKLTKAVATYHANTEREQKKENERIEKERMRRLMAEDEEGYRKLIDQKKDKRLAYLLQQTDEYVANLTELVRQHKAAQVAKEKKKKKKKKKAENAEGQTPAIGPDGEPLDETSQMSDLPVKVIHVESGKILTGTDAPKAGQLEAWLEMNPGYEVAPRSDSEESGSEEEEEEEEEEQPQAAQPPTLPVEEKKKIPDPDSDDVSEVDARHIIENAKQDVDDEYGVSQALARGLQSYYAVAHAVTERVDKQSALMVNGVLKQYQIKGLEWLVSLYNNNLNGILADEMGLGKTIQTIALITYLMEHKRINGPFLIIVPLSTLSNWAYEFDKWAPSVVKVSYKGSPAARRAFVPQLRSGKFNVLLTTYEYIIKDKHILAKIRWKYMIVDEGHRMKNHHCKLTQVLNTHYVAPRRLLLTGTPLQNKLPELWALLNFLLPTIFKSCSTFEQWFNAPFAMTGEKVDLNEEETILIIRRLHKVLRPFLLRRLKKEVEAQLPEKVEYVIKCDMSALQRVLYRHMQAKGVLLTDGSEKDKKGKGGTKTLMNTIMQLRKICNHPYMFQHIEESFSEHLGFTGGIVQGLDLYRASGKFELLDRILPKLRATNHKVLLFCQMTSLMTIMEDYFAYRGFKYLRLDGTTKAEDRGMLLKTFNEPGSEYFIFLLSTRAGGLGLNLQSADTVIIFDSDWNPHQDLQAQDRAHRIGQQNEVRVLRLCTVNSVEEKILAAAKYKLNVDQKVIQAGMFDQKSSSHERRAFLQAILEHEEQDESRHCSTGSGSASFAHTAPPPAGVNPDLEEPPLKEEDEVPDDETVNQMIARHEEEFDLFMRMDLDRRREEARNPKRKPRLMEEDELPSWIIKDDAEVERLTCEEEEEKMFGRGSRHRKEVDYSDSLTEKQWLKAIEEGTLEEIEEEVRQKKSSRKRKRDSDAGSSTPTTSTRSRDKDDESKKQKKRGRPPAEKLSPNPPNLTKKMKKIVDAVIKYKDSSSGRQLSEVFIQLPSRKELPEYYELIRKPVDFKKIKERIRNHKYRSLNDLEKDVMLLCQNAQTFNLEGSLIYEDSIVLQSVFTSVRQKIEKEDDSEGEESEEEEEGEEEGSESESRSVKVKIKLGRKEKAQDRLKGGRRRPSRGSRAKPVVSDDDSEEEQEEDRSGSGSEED
(§2) Then following addition of 5 μL of ADP-Glo™ Reagent provided in the kit, the reaction incubates at room temperature for 40 minutes. Then 10 μL of Kinase Detection Reagent provided in the kit is added to convert ADP to ATP, and the reaction incubates at room temperature for 60 minutes. Finally, luminescence measurement is collected with a plate-reading luminometer, such as Envision.
(§3) The ADP-Glo™ kinase assay is performed in two steps once the reaction is complete. The first step is to deplete any unconsumed ATP in the reaction. The second step is to convert the reaction product ADP to ATP, which will be utilized by the luciferase to generate luminesce and be detected by a luminescence reader, such as Envision.
A general note: In ADP-Glo the light output rises with the ADP produced.

Assay [2] addresses BRM (Homo sapiens, UniProt P51531). Description: ATPase catalytic activity assay of BRM (ADP-Glo). In kind it is biochemical. As to conditions: for IC50: read-out: BRM IC50 (μM)*. As for the experimental part: as §1, §2, §3

Structures are written as SMILES. Some results are limits rather than exact numbers.

Chain of BRM (P51531 whole entry): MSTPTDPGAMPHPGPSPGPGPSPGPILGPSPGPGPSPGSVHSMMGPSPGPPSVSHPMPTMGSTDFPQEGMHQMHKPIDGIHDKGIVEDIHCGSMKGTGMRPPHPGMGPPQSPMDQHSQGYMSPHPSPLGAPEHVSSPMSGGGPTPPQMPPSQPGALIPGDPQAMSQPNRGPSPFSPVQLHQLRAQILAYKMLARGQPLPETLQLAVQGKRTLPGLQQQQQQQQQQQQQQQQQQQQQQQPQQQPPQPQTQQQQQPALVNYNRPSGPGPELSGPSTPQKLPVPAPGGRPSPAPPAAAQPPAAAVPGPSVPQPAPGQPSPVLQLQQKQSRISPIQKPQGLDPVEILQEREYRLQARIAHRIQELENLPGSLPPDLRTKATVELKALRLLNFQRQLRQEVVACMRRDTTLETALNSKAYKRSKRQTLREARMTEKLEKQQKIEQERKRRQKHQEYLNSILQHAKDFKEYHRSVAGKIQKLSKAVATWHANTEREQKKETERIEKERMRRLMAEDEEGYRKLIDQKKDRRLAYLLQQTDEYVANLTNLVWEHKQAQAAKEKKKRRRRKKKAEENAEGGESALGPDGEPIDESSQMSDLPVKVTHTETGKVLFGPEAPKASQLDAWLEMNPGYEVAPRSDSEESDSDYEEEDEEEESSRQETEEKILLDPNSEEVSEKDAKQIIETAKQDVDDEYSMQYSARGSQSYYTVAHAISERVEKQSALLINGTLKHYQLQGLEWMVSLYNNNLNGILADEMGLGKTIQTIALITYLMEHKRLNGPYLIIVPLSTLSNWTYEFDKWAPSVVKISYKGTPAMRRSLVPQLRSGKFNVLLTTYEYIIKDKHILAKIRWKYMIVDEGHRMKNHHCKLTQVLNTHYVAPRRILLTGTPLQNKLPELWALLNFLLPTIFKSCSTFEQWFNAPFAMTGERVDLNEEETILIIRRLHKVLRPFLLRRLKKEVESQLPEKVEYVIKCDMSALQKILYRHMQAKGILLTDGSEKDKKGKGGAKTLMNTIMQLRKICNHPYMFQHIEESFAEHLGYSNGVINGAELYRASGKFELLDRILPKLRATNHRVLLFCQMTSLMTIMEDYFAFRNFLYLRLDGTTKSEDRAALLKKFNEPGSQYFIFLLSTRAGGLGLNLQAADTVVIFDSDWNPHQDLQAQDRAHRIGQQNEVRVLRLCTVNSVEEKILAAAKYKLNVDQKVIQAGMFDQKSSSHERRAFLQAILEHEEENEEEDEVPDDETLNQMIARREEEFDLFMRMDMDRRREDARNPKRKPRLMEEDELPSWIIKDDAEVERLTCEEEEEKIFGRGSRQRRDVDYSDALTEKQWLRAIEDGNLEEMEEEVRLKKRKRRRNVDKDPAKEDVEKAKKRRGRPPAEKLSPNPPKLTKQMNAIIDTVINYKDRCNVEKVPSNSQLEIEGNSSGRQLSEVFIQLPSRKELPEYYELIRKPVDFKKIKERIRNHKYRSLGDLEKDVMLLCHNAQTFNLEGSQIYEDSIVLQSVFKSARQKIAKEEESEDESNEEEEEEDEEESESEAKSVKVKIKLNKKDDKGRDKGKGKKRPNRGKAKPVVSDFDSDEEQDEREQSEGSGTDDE

As for `C[C@@H]1CN(c2cccc(-c3csc(NC(=O)CNC(=O)c4ccc5c(c4)[C@@](F)(C#N)COC5)n3)n2)C[C@H](C)O1` (single isomer, unassigned) [Compound 299], in assay [1], the IC50 (commonly the concentration that gives 50% inhibition) is 0.1 to 1 µM and the Emax is over 95%. In assay [2], the “BRM Max % Inhibition” value was over 95% and the half-maximal inhibitory concentration (IC50) was under 0.1 µM.

With `CN1CCc2ccc(-c3csc(NC(=O)CNC(=O)c4ccc5c(c4)C(C)(CO)CC5)n3)cc2C1=O` (stereo in doubt) [Compound 176, (R)-3-(hydroxymethyl)-3-methyl-N-(2-((4-(2-methyl-1-oxo-1,2,3,4-tetrahydroisoquinolin-7-yl)thiazol-2-yl)amino)-2-oxoethyl)-2,3-dihydro-1H-indene-5-carboxamide], in assay [1], the IC50 lay in the range of 0.1 to 1 µM and the Emax is over 80%. Also, in assay [2], the “BRM Max % Inhibition” value is on record as over 95% and the 50% inhibitory concentration (IC50) fell in the range of 0.1 to 1 µM.

As for `CC1(CO)CCc2ccc(C(=O)NCC(=O)Nc3nc(-c4ccn5ccnc5c4)cs3)cc21` (stereo in doubt) [Compound 178, (R)-3-(hydroxymethyl)-N-(2-((4-(imidazo[1,2-a]pyridin-7-yl)thiazol-2-yl)amino)-2-oxoethyl)-3-methyl-2,3-dihydro-1H-indene-5-carboxamide], in assay [1], the IC50 is over 5 µM and the Emax is over 50%. Also, in assay [2], the “BRM Max % Inhibition” value is recorded as over 80% and the IC50 is 0.1 to 1 µM.

As to `C[C@@H]1CN(c2cccc(-c3csc(NC(=O)CNC(=O)c4ccc5c(c4)C(F)(C(F)F)CCO5)n3)n2)C[C@H](C)O1` (stereo in doubt) [Compound 272, (R)-4-(difluoromethyl)-N-(2-((4-(6-((cis)-2,6-dimethylmorpholino)pyridin-2-yl)thiazol-2-yl)amino)-2-oxoethyl)-4-fluorochromane-6-carboxamide], in assay [1], the IC50 was under 0.1 µM and the Emax is over 95%. Moreover, in assay [2], the “BRM Max % Inhibition” value was over 95% and the IC50 is under 0.1 µM.

Regarding `C[C@@H]1CN(c2cccc(-c3csc(NC(=O)CNC(=O)c4ccc5c(c4)C(F)(C(F)F)CCO5)n3)n2)C[C@H](C)O1` (stereo in doubt) [Compound 273, (S)-4-(difluoromethyl)-N-(2-((4-(6-((cis)-2,6-dimethylmorpholino)pyridin-2-yl)thiazol-2-yl)amino)-2-oxoethyl)-4-fluorochromane-6-carboxamide], in assay [1], the IC50 is 0.1 to 1 µM and the Emax was over 95%. In assay [2], the “BRM Max % Inhibition” value is reported as over 95% and the IC50 was under 0.1 µM.

For the molecule `COc1cccc(-c2csc(NC(=O)CNC(=O)c3cc(F)c4c(c3)C(C)(O)COC4)n2)c1` (stereo in doubt) [Compound 280, (R)-8-fluoro-4-hydroxy-N-(2-((4-(3-methoxyphenyl)thiazol-2-yl)amino)-2-oxoethyl)-4-methylisochromane-6-carboxamide], in assay [1], the IC50 lay in the range of 1 to 5 µM and the Emax was over 90%. Further, in assay [2], the “BRM Max % Inhibition” value is over 90% and the IC50 was in the range of 0.1 to 1 µM.

Turning to `CCOC(=O)N1CCCC(c2csc(NC(=O)CNC(=O)c3ccc4c(c3)[C@](C)(F)COC4)n2)C1` (stereo in doubt) [Compound 283, ethyl (S)-3-(2-(2-((S)-4-fluoro-4-methylisochromane-6-carboxamido)acetamido)thiazol-4-yl)piperidine-1-carboxylate], in assay [1], the concentration for half-maximal inhibition (IC50) is 0.1 to 1 µM and the Emax was over 95%. In assay [2], the “BRM Max % Inhibition” value is given as over 95% and the IC50 was under 0.1 µM.

As for `CCOC(=O)N1CCC[C@H](c2csc(NC(=O)CNC(=O)c3ccc4c(c3)C(C)(F)COC4)n2)C1` (stereo in doubt) [Compound 284, ethyl (S)-3-(2-(2-((R)-4-fluoro-4-methylisochromane-6-carboxamido)acetamido)thiazol-4-yl)piperidine-1-carboxylate], in assay [1], the concentration for half-maximal inhibition (IC50) was 0.1 to 1 µM and the Emax is over 95%. In addition, in assay [2], the “BRM Max % Inhibition” value is over 95% and the IC50 is under 0.1 µM.

On to `C[C@@H]1CN(c2cccc(-c3csc(NC(=O)CNC(=O)c4ccc5c(c4)C(C)(C#N)CNC5)n3)c2)C[C@H](C)O1` (stereo in doubt) [Compound 287, (S)-4-cyano-N-(2-((4-(3-((cis)-2,6-dimethylmorpholino)phenyl)thiazol-2-yl)amino)-2-oxoethyl)-4-methyl-1,2,3,4-tetrahydroisoquinoline-6-carboxamide], for which, in assay [1], the IC50 is under 0.1 µM and the Emax was over 95%. Also, in assay [2], the “BRM Max % Inhibition” value was over 95% and the IC50 is under 0.1 µM.

For the molecule `COC(=O)N1CCC[C@H](c2csc(NC(=O)CNC(=O)c3ccc4c(c3)C(C)(F)COC4)n2)C1` (stereo in doubt) [Compound 301, methyl (S)-3-(2-(2-((R)-4-fluoro-4-methylisochromane-6-carboxamido)acetamido)thiazol-4-yl)piperidine-1-carboxylate], in assay [1], the IC50 was 1 to 5 µM and the Emax is over 95%. Further, in assay [2], the “BRM Max % Inhibition” value was over 95% and the IC50 fell in the range of 0.1 to 1 µM.

As to `COC(=O)N1CCCC(c2csc(NC(=O)CNC(=O)c3ccc4c(c3)[C@](C)(F)COC4)n2)C1` (stereo in doubt) [Compound 302, methyl (S)-3-(2-(2-((S)-4-fluoro-4-methylisochromane-6-carboxamido)acetamido)thiazol-4-yl)piperidine-1-carboxylate], in assay [1], the IC50 was 0.1 to 1 µM and the Emax was over 95%. Also, in assay [2], the “BRM Max % Inhibition” value is reported as over 95% and the IC50 was under 0.1 µM.

For `C[C@@H]1CN(c2cccc(-c3csc(NC(=O)CNC(=O)c4ccc5c(c4)C(F)(C(F)F)COC5)n3)c2)C[C@H](C)O1` (stereo in doubt) [Compound 307, (R)-4-(difluoromethyl)-N-(2-((4-(3-((cis)-2,6-dimethylmorpholino)phenyl)thiazol-2-yl)amino)-2-oxoethyl)-4-fluoroisochromane-6-carboxamide], in assay [1], the IC50 was under 0.1 µM and the Emax is over 95%. Also, in assay [2], the “BRM Max % Inhibition” value was over 95% and the IC50 was under 0.1 µM.

On to `C[C@@H]1CN(c2cccc(-c3csc(NC(=O)CNC(=O)c4ccc5c(c4)C(F)(C(F)F)COC5)n3)c2)C[C@H](C)O1` (stereo in doubt) [Compound 308, (S)-4-(difluoromethyl)-N-(2-((4-(3-((cis)-2,6-dimethylmorpholino)phenyl)thiazol-2-yl)amino)-2-oxoethyl)-4-fluoroisochromane-6-carboxamide], for which, in assay [1], the IC50 is under 0.1 µM and the Emax is over 95%. In assay [2], the “BRM Max % Inhibition” value is over 95% and the IC50 was under 0.1 µM.

As for `CC(NC(=O)c1ccc2c(c1)[C@](C)(F)COC2)C(=O)Nc1nc(-c2cccc(N3CCC3)c2)cs1` (stereo in doubt) [Compound 319, (S)-N-((R)-1-((4-(3-(azetidin-1-yl)phenyl)thiazol-2-yl)amino)-1-oxopropan-2-yl)-4-fluoro-4-methylisochromane-6-carboxamide], in assay [1], the IC50 was in the range of 0.1 to 1 µM and the Emax is over 95%. In assay [2], the “BRM Max % Inhibition” value was over 95% and the IC50 is under 0.1 µM.

As to `COc1cccc(-c2csc(NC(=O)CNC(=O)c3ccc4c(c3)C(C)(F)CCCO4)n2)c1` (stereo in doubt) [Compound 324, (S)-5-fluoro-N-(2-((4-(3-methoxyphenyl)thiazol-2-yl)amino)-2-oxoethyl)-5-methyl-2,3,4,5-tetrahydrobenzo[b]oxepine-7-carboxamide], in assay [1], the IC50 is 0.1 to 1 µM and the Emax is over 90%. Further, in assay [2], the “BRM Max % Inhibition” value was over 90% and the IC50 fell in the range of 0.1 to 1 µM.

On to `COc1cccc(-c2csc(NC(=O)CNC(=O)c3ccc4c(c3)C(C)(F)CCCO4)n2)c1` (stereo in doubt) [Compound 325, (R)-5-fluoro-N-(2-((4-(3-methoxyphenyl)thiazol-2-yl)amino)-2-oxoethyl)-5-methyl-2,3,4,5-tetrahydrobenzo[b]oxepine-7-carboxamide], for which, in assay [1], the 50% inhibitory concentration (IC50) lay within 0.1 to 1 µM and the Emax was over 95%. Also, in assay [2], the “BRM Max % Inhibition” value is recorded as over 95% and the 50% inhibitory concentration (IC50) was 0.1 to 1 µM.

Take `COCC(NC(=O)c1ccc2c(c1)[C@](C)(F)COC2)C(=O)Nc1nc(-c2cccc(C(F)F)c2)cs1` (stereo in doubt) [Compound 327, (S)-N-((R)-1-((4-(3-(difluoromethyl)phenyl)thiazol-2-yl)amino)-3-methoxy-1-oxopropan-2-yl)-4-fluoro-4-methylisochromane-6-carboxamide]: in assay [1], the half-maximal inhibitory concentration (IC50) lay within 0.1 to 1 µM and the Emax was over 95%. In assay [2], the “BRM Max % Inhibition” value is reported as over 95% and the IC50 was under 0.1 µM.

As to `COc1cc(F)cc(-c2csc(NC(=O)C(C)NC(=O)c3ccc4c(c3)[C@](C)(F)COC4)n2)c1` (stereo in doubt) [Compound 334, (S)-4-fluoro-N-((R)-1-((4-(3-fluoro-5-methoxyphenyl)thiazol-2-yl)amino)-1-oxopropan-2-yl)-4-methylisochromane-6-carboxamide], in assay [1], the IC50 lay within 0.1 to 1 µM and the Emax is over 95%. In addition, in assay [2], the “BRM Max % Inhibition” value is reported as over 95% and the IC50 was under 0.1 µM.
